From patent US10000765B2, “Gene encoding cytochrome P450, and use thereof” (NATIONAL INSTITUTE OF AGROBIOLOGICAL SCIENCES, priority 2011, dated 2018)

Key:
[1] = system: Nipponbare and Kasalath calluses with GFP overexpression construct; assay: Callus growth test on BS-containing medium, GFP overexpression construct; type: cell-based, Oryza sativa; details: medium containing 0.25, 0.5, or 0.75 μM BS
Description: (§1) According to Example 5, an HptII::35Spro::Kasalath CYP72A31::Tnos vector plasmid (pCAMBIA1390-KasCYP72A31, a kasCYP72A31 overexpression construct) or, as a control, an HptII::35Spro::sGFP::Tnos vector plasmid (pCAMBIA1390-sGFP, an sGFP overexpression construct) was introduced into a rice variety (cultivars: Nipponbare and Kasalath) by using an Agrobacterium method. Transformed calluses selected with 50 ppm hygromycin were isolated, and transplanted onto a bispyribac-sodium (BS)-containing medium to examine callus growth.

[2] = system: Wild-type rice (Nipponbare); assay: Drug sensitivity test on gellan gum medium, wild-type rice; type: in vivo, Oryza sativa; details: plant height compared with drug-free medium
Experimental: Next, 1.6 g of Hoagland's mix (Sigma-Aldrich Corporation) and 3 g of Gelrite (Wako Pure Chemical Industries, Ltd.) were suspended in 1 L of distilled water. Then, the mixture was dissolved and heated in a microwave. After that, the mixture was cooled to 50 to 60 degree C., and BS was added at a final concentration of 1 μM. This mixture was dispensed into 30-mL tubular bottles at 15 mL to prepare a gellan gum medium. Next, CSSL rice paddies were soaked in 0.5% sodium hypochlorite for about 20 minutes, and were then washed well with water. These paddies were soaked in distilled water, and kept at 27 degree C. for 3 to 5 days for germination. Germinating seeds were softly planted in sprout-side up on the gellan gum medium. These samples, together with a beaker filled with distilled water, were placed in a transparent case, which was then covered with a clear-plastic wrap. These samples were grown at 27 degree C. under fluorescent light illumination (14 hours of a light period and 10 hours of a dark period) for 7 to 9 days.
According to the method of Example 1, a gellan gum medium containing a test drug at a concentration of 0.01, 0.1, 1, or 10 μM was prepared. Rice seeds were sterilized, germinated, seeded in the medium, and cultivated.

[3] = system: Arabidopsis thaliana K31-4-2 and K31-6-5; assay: Growth test in BS-containing medium, Arabidopsis transformed with Kasalath-derived CYP72A31; type: in vivo; details: day 10 from onset of cultivation, compared to NT
Description: In this Example, Agrobacterium as prepared in Example 4 was used to introduce HptII::35Spro::Kasalath CYP72A31::Tnos vector plasmid (pCAMBIA1390-KasCYP72A31), HptII::35Spro::Kasalath CYP72A32::Tnos vector plasmid (pCAMBIA1390-KasCYP72A32), or HptII::35Spro::Kasalath CYP72A33::Tnos vector plasmid (pCAMBIA1390-KasCYP72A33) into Arabidopsis thaliana (ecotype: Col-0) by using a floral-dip method. The floral-dip method followed a standard method. […] K31-4-2 and K31-6-5 were selected as fixed lines derived from pCAMBIA1390-KasCYP72A31; K32-1-1, K32-3-1, and K32-5-1 were selected as fixed lines derived from pCAMBIA1390-KasCYP72A32; and K33-1-3 and K33-2-4 were selected as fixed lines derived from pCAMBIA1390-KasCYP72A33. Their seeds were seeded in a medium containing each concentration of BS, and cultivated for 10 days. FIGS. 16A and 16B illustrate the results.
Next, 15 seeds for each of non-transformed Arabidopsis thaliana (NT, which is denoted by “Col-0” in FIGS. 17A-17C) and transformed plant bodies (K31-4-2 which is denoted by “K31oe-4-2” in FIGS. 17A-17C and K31-6-5 which is denoted by “K31oe-6-5” in FIGS. 17A-17C) were cultivated on a medium containing each concentration of BS. […]

[4] = system: Arabidopsis thaliana (K31-4-2) transformed with a Kasalath-derived CYP72A31 gene; assay: Drug sensitivity test on drug-containing MS medium, Arabidopsis thaliana transformed with Kasalath-derived CYP72A31 gene; type: in vivo; details: for Ratio of sensitivity: K31-4-2 / NT
Experimental: A bag of mixed salts for Murashige-Skoog (MS) medium (manufactured by Wako Pure Chemical Industries, Ltd.) 20 g of sucrose, 3 mg of thiamin hydrochloride, 5 mg of nicotinic acid, and 0.5 mg of pyridoxine hydrochloride were dissolved in distilled water, and filled up to 1 L with distilled water. After pH adjustment to 5.8 to 6.3 with 1 M KOH, 3 g of Gelrite was added to the solution, and dissolved using a microwave. After that, the mixture was autoclaved to prepare a sterile MS medium. A test drug was added to this sterile MS medium so as to make a final concentration of 1.3, 4.1, 12, 37, 110, or 330 nM. Arabidopsis thaliana from a sterilized seed was seeded in the drug-containing MS medium, and cultivated at 22° C. for 12 to 14 days in a continuous light period.
Note that the drugs used in this Example were bispyribac-sodium, pyrithiobac-sodium, pyriminobac, bensulfuron-methyl, penoxsulam, pyrazosulfuron-ethyl, amidosulfuron, imazosulfuron, nicosulfuron, and propyrisulfuron.

[5] = system: Nipponbare and Kasalath calluses with CYP72A31 overexpression construct; assay: Callus growth test on BS-containing medium, Kasalath CYP72A31 overexpression construct; type: cell-based, Oryza sativa; details: medium containing 0.25, 0.5, or 0.75 μM BS
Description: as §1

## COc1cc(OC)nc(Oc2cccc(Oc3nc(OC)cc(OC)n3)c2C(=O)O)n1 [BS, bispyribac sodium]
[1]
  Callus growth: inhibited their growth
[2]; drug 0.01 μM
  CK ratio (%): 82%
[2]; drug 0.1 μM
  CK ratio (%): 64%
[2]; drug 1 μM
  CK ratio (%): 22%
[2]; drug 10 μM
  CK ratio (%): 3%
[3]
  BS sensitivity (germinated seeds, emerging of true leaves, fresh weight of above-ground part): significantly lower BS sensitivity compared to NT
[4]; K31-4-2, Tables 2 and 3, FIGS. 20 to 24
  Resistance of transformed Arabidopsis thaliana to the drug: exhibited resistance
[4]; K31-4-2, drug 1.3 nM, day 12 after seeding
  Rate of emerging of true leaf (%): 89%
[4]; K31-4-2, drug 1.3 nM, day 14 after seeding
  Rate of emerging of true leaf (%): 100%
[4]; K31-4-2, drug 4.1 nM, day 12 after seeding
  Rate of emerging of true leaf (%): 100%
[4]; K31-4-2, drug 4.1 nM, day 14 after seeding
  Rate of emerging of true leaf (%): 100%
[4]; K31-4-2, drug 12 nM, day 12 after seeding
  Rate of emerging of true leaf (%): 89%
[4]; K31-4-2, drug 12 nM, day 14 after seeding
  Rate of emerging of true leaf (%): 100%
[4]; K31-4-2, drug 37 nM, day 12 after seeding
  Rate of emerging of true leaf (%): 100%
[4]; K31-4-2, drug 37 nM, day 14 after seeding
  Rate of emerging of true leaf (%): 100%
[4]; K31-4-2, drug 110 nM, day 12 after seeding
  Rate of emerging of true leaf (%): 100%
[4]; K31-4-2, drug 110 nM, day 14 after seeding
  Rate of emerging of true leaf (%): 100%
[4]; K31-4-2, drug 330 nM, day 12 after seeding
  Rate of emerging of true leaf (%): 78%
[4]; K31-4-2, drug 330 nM, day 14 after seeding
  Rate of emerging of true leaf (%): 80%
[4]; maximum drug concentration for 40% or more emerging of true leaves, day 12
  Ratio of sensitivity: >28
[4]; maximum drug concentration for 80% or more emerging of true leaves, day 14
  Ratio of sensitivity: >80
[5]
  Callus growth: demonstrated to grow
